# Test results from US20100062059A1, “S-Nitrosothiols Containing Composition for the Treatment of Fatty Liver Diseases, Obesity and Other Diseases Associated with the Metabolic Syndrome and the Use of Such Compositions” (PROTAGEN AKTIENGESELLSCHAFT, priority 2006, published 2010).
# Experiments:
# [1] = tested on: Wistar rats with hepatic steatosis induced by a choline-deficient diet; test: Hydroperoxide (LOOH) concentration in the liver of rats with diet-induced hepatic steatosis; assay type: in vivo; conditions: control group 3.2±0.4
# Procedure: Wistar rats with hepatic steatosis induced by a choline-deficient diet were assigned to three groups to perform the tests with the administration of S-nitroso-N-acetylcysteine (SNAC), which is one of the active principles of the present invention, and to evaluate the concentration of hydroperoxides (LOOH) in the liver.
# A first group of animals, group 1, was treated with a solution of S-nitroso-N-acetylcysteine, which was administrated orally to the animals at a dose of 1.4 mg/kg/day. A second group of animals, group 2, was treated with N-acetylcysteine (NAC), which was also administrated orally to the animals at a dose of 7.0 mg/kg/day.
# [2] = tested on: human low density lipoprotein (LDL); test: CuCl2-catalyzed oxidation of LDL suspension, fluorescence spectrophotometry; assay type: biochemical; conditions: LDL 200 μg/mL, CuCl2 300 μmol/L, 15 hours, SNAC 300 μmol/L, pH 7.4
# Procedure: For this example, approximately 15 mL of a human low density lipoprotein (LDL) suspension at a concentration of around 200 μg/mL, in phosphate buffer, pH 7.4, aerated PBS (in vitro) were previously prepared and initially divided into three parts. A first part (a) with approximately 5 mL consisting of the previously prepared suspension solely; a second part (b) with approximately 5 mL, consisting of the LDL suspension incubated in a CuCl2 solution at a preferential concentration of 300 μmol/L for a period of around 15 hours; and a third part (c) with approximately 5 mL, consisting of the LDL suspension incubated in a CuCl2 solution at a preferential concentration of 300 μmol/L for a period of around 15 hours, in the presence of SNAC at a preferential concentration of 300 μmol/L.
# A sample of each part was submitted to fluorescence spectrophotometry. FIG. 2 features the emission spectrum for the analyzed samples. […] The 410- and 440-nm emission peaks in the LDL suspension fluorescence spectrum correspond to the formation of a Schiff base adduct between the lipid oxidation products contained in the LDL particles (mainly the malondialdehyde [MDA]) and the free amino groups on LDL apolipoprotein (mainly apo-B-100), and are known as LDL oxidation markers.
# [3] = tested on: soy lipoxigenase (SLO); test: Linoleic acid (LA) peroxidation catalyzed by soy lipoxigenase, absorbance at 234 nm; assay type: biochemical
# Procedure: This referred effect may be shown by the analysis of two kinetic parameters: initial velocity and extension of the peroxidation reaction until the chemical equilibrium is reached. Such parameters were analyzed by ultraviolet spectrophotometry and the kinetic curves (a′, b′, c′ and d′) were obtained from absorbance variation monitored though the band with peak at 234 nm at a preferential temperature of 37° C. This band value is characteristic for combined dienes and may, therefore, act as LA peroxidation marker. For this Example, the first curve (a′) refers to a sample of linoleic acid whose peroxidation was catalyzed by incubation with soy lipo-oxygenase at a preferential concentration of 0.056 μmol/L; the second curve (b′) refers to a sample of linoleic acid whose peroxidation was catalyzed by incubation of the linoleic acid with a mixture of soy lipo-oxygenase in the presence of NAC at a preferential concentration of 560 μmol/L; the third curve (c′) refers to a sample of linoleic acid whose peroxidation was catalyzed by incubation of soy Lipo-oxygenase in the presence of SNAC at a preferential concentration of 56 μmol/L; and the fourth curve (d′) refers to a sample of linoleic acid whose peroxidation was catalyzed by incubation of soy lipo-oxygenase in the presence of SNAC at a preferential concentration of 560 μmol/L. FIG. 3 illustrates the absorbance curves obtained for the groups of the present Example. The interpretation of the curves is given by the initial velocity, which corresponds to the inclination of the initial section of the curves within approximately 10 seconds, and the extension of the reaction, which corresponds to the absorbance values on the plateaus of the curves.
# [4] = tested on: Rats fed a choline-deficient diet; test: Liver histology (hematoxylin and eosin) of rats fed a choline-deficient diet; assay type: in vivo; conditions: control: moderate macrovacuolar and microvacuolar steatosis in the periportal zone
# Excerpt: Rats fed a choline-deficient diet were selected to compose the Control Group when compared to SNAC-treated rats. Hematoxylin and eosin-stained histological sections of hepatic tissue were examined under optical microscopy, as shown on FIGS. 5A and 5B.
# [5] = tested on: ob/ob mice; test: Liver histology (hematoxylin and eosin) of ob/ob mice on MCD or hyperlipidemic diet; assay type: in vivo
# Excerpt: For the Example 4, ob/ob mice were selected. A first group of mice was fed a methionine/choline-deficient diet (Group MCD) and a second group of mice was fed a hyperlipidemic diet (Group H).
# Animals were selected from both groups and hematoxylin and eosin-stained histological sections of the hepatic tissue of these animals were obtained and examined under optical microscopy.
# Other animals selected from both groups of mice, Group MCD and Group H, were submitted to a 30-day treatment consisting of SNAC administration. After the 30th day, hematoxylin and eosin-stained histological sections of the hepatic tissue of these animals were obtained and examined under optical microscopy.
# The remaining animals in Groups H and MCD were maintained on these diets up the 60th day and were put on SNAC administration from the 31st day on. After the 60th day of treatment, hematoxylin and eosin-stained histological sections of the hepatic tissue of these animals were obtained and examined under optical microscopy.
# [6] = Body mass variation of animals on MCD or hyperlipidemic diet; assay type: in vivo; conditions: SNAC by gavage, four weeks
# Excerpt: Data are expressed as means±standard deviation.
# [7] = SNAC 56 μmol/L, reduction compared with NAC 560 μmol/L, curve c′
# [8] = NAC 560 μmol/L, LA 18.76 μmol/L, SLO 0.056 μmol/L, 37° C., curve b′
SMILES,"hydroperoxide concentration in the liver ([1]; group 1, oral, 1.4 mg/kg/day) [nmol/g protein]",410 and 440 nm emission peaks (LDL oxidation markers) [2],"extension of the LA peroxidation reaction [3, 7]","initial velocity of the LA peroxidation reaction [3, 7]","extension of the LA peroxidation reaction ([3]; SNAC 560 μmol/L, curve d′)","initial velocity of the LA peroxidation reaction ([3]; SNAC 560 μmol/L, curve d′)",histological characteristics of hepatic tissue [4],"histological characteristics of the liver ([5]; Group H, diet concomitantly with 30-day SNAC administration)","histological characteristics of the liver ([5]; Group H, diet to 60th day, SNAC from the 31st to the 60th day)","histological characteristics of the liver ([5]; Group MCD, diet concomitantly with 30-day SNAC administration)","histological characteristics of the liver ([5]; Group MCD, diet to 60th day, SNAC from the 31st to the 60th day)",body mass increase ([6]; group H (untreated 28% increase)),body mass increase ([6]; group MCD),"hydroperoxide concentration in the liver ([1]; group 2, oral, 7.0 mg/kg/day) [nmol/g protein]","extension of the LA peroxidation reaction [3, 8]","initial velocity of the LA peroxidation reaction [3, 8]"
"CC(=O)N[C@@H](CSN=O)C(=O)O [SNAC, S-nitroso-N-acetylcysteine]",0.3±0.1,blockage of the increase of 410 and 440 nm peaks,reduction is more accentuated,reduction is more accentuated,reduction is considerably much pronounced,reduction is considerably much pronounced,normal liver in the periportal zone,consistent with normal livers,consistent with those of normal livers,consistent with normal livers,consistent with those of normal livers,remarkable reduction of body mass increase,practically eliminated the body mass increase,–,–,–
"CC(=O)N[C@@H](CS)C(=O)O [NAC, N-acetylcysteine, reference compound]",–,–,–,–,–,–,–,–,–,–,–,–,–,0.7±0.2,reduced the extension,reduced the extension and velocity
